Assay results from patent US11865359B2, “Tumor imaging with x-rays and other high energy sources using as contrast agents photon-emitting phosphors having therapeutic properties” (IMMUNOLIGHT, LLC., priority 2014, dated 2024).

Assays:
B16 cancer cells = assay: Clonogenic cell kill, visible phosphor mixtures under x-ray with and without psoralen (AMT); type: cell-based
From the text: Accordingly, combinations of more than two “visible” phosphors can be used in this invention. Discussed below are x-ray settings and mass ratios for clonogenic cell kill experiments. F1 refers to the insertion of an aluminum filter into the x-ray beam to act as a filter.
FIGS. 34A and 34B show cell kill comparisons (shown here as the number of surviving colonies) between B16 cancer cells treated with and without psoralen (i.e., AMT) with different phosphor mixtures, but otherwise being x-ray stimulated and containing the multiple phosphor combinations noted above. On these drawings, LDLE=low xRT dose, low energy; HDHE=high xRT dose, high energy.
On these drawings, LDLE=low xRT dose, low energy; HDHE=high xRT dose, high energy.

tumor = assay: Animal study, Rodent Syngeneic Model, tumor growth delay; type: in vivo, BALB/c female mice; settings: 50-100 uL intra-tumoral injection three times per week, 100 ug phosphor combination and 5 uM psoralen (AMT), X-Ray 75kVp, 30 mA, 3 min; repeated study same result
Experimental: A phosphor system containing the following phosphor combination: LaPO4:Ce^3+, Tb^3+, 3Ca3(PO4)2.Ca(Fl, Cl)2:Sb^3+, Mn^2+, ZrO6-: Pr, Si, CaSiO3:Mn, Pb was used in an animal study based on a Rodent Syngeneic Model. In this animal study, a 50-100 uL intra-tumoral injection three times per week using 100 ug phosphor and 5 uM psoralen (AMT) and exposed to X-Ray dose of 75kVp using 30 mA for a duration of 3 min. The groups of mice in this study consisted of eight BALB/c female mice.

[1] = clinical use; cited from earlier work
cells = cells kept in the dark compared to those exposed to light; cited from earlier work
sarcoma cell line KP1408 = assay: Annexin V flow cytometry apoptosis assay, 1Gy 80kVp x-ray; settings: psoralen, phosphor and x-ray present
sarcoma cell line KP1619 = assay: as above; settings: psoralen, phosphor and x-ray present

Cc1oc2c(C)c3oc(=O)cc(C)c3cc2c1CN [AMT]
cell kill (surviving colonies) with versus without psoralen (B16 cancer cells; Red/Yellow/Green and Flamingo/Yellow/Green phosphor mixtures, x-ray stimulated, FIGS. 34A and 34B): improved cell kill
cell kill with versus without psoralen (B16 cancer cells; flamingo, yellow, green FYG phosphor combination, FIG. 36): pronounced cell kill
tumor growth versus saline treated group (tumor): tumor growth delay

Oc1cccc(-c2c3nc(c(-c4cccc(O)c4)c4ccc([nH]4)c(-c4cccc(O)c4)c4nc(c(-c5cccc(O)c5)c5ccc2[nH]5)CC4)C=C3)c1 [Foscan, Tetra (m-hydroxyphenyl) chlorin]
duration of skin photosensitivity [1]: approximately 2 weeks

NCCN.[Cl][Pt]([Cl])([I])[I] [[PtCl2I2(en)]]
cytotoxicity, dark compared to light (cells): no difference in cytotoxicity

O=c1ccc2cc3ccoc3cc2o1 [psoralen]
cell kill with versus without psoralen (B16 cancer cells; higher kVp x-ray conditions, FIGS. 35A and 35B): does not show an increased kill
apoptosis (sarcoma cell line KP1408): high apoptosis
apoptosis (sarcoma cell line KP1619): high apoptosis
